Literature values in patent publication US4693997A, “Novel pharmaceutical composition” (priority 1982, dated 1987).
Where a name gives a salt, the structure may show the parent alone. Read-outs that look alike come from different tables or passages of the source.

System: mucosa in the oesophagus
Details: oral tablets
[1] = compared with emepronium bromide tablets

SMILES	oesophageal irritation and ulceration [1]	oesophageal irritation and ulceration (Bennett, Lancet 1977, 1, 810)
CC1c2cccc(O)c2C(=O)C2=C(O)C3(O)C(=O)C(C(N)=O)=C(O)C(N(C)C)C3C(O)C21 (stereo not drawn) [doxycycline hydrochloride]	same type of irritation and ulceration	–
CC[N+](C)(C)C(C)CC(c1ccccc1)c1ccccc1 (stereo not drawn) [emepronium bromide]	–	severe irritation and ulceration in the oesophagus
CC(C)NCC(O)COc1cccc2ccccc12 (stereo not drawn) [propranolol hydrochloride]	same type of irritation and ulceration	–
